Measurements as given in US20090111846A1, “PHARMACEUTICAL COMPOSITIONS COMPRISING DEXTROMETHORPHAN AND QUINIDINE FOR THE TREATMENT OF DEPRESSION, ANXIETY, AND NEURODEGENERATIVE DISORDERS” (Avanir Pharmaceuticals, priority 2006, published 2009).
“Also recorded” adds a separate entry of the source.

Tests used:
[1] = Dextromethorphan with quinidine in healthy subjects (Pope et al.); assay type: in vivo, human; conditions: from 68-fold concentration in brain and plasma levels with quinidine
Method: The use of quinidine to inhibit the rapid first-pass metabolism of dextromethorphan allows the attainment of potential neuroprotective drug levels in the brain. […] This dose, 30 mg twice daily (BID) given with 60 mg BID dextromethorphan, increased plasma levels of dextromethorphan 25-fold. In this manner, coadministration of 30 mg of quinidine BID with dextromethorphan in the three unsuccessful amyotrophic lateral sclerosis neuroprotection trials could have readily transformed the inadequate dextromethorphan doses into standard neuroprotective plasma concentrations.
Given the 68-fold concentration of dextromethorphan in brain found in neurosurgery patients (Steinberg et al. J Neurosurg. 1996; 84:860-6), an estimated brain concentration of 13,100 ng/g (about 48 microM) is achievable. This corresponds to neuroprotective levels established in preclinical in vitro (Choi et al. J Pharmacol Exp Ther. 1987; 242:713-20) and in vivo (Steinberg et al. Neurol Res. 1993; 15:174-80) studies.
A reasonable concern is that the achievement of higher dextromethorphan plasma concentrations, as well as the use of quinidine, may be associated with an increased occurrence of adverse events, particularly in patients with neurological disorders. […] No difference was found between the extensive and poor metabolizer phenotypes. […]

[2] = tested on: glutamate-induced neurotoxicity in neocortical cell cultures, in vitro hypoxia and glucose deprivation models; conditions: cited from earlier work
[3] = tested on: neocortical ischemic neuronal damage and edema; conditions: cited from earlier work
[4] = tested on: methotrexate (MTX) neurotoxicity; conditions: oral 1-2 mg/kg, N=5, all patients; cited from earlier work
[5] = tested on: amyotrophic lateral sclerosis; conditions: cited from earlier work
[6] = cited from earlier work
[7] = Huntington's disease, N=11; cited from earlier work
[8] = ALS, detectable in only 1 of 7 patients, 4.8 to 10 mg/kg/day, at 3 months; cited from earlier work
[9] = tested on: perioperative brain injury; conditions: cited from earlier work
[10] = cited from earlier work; remark: listed apart in the source
[11] = single oral dose 30 mg, extensive metabolizers (N=5); cited from earlier work
[12] = in vivo
Method: Dosages of other antioxidants will vary with the antioxidant, and are determined on an individual basis.

Question: Which “estimated brain concentration achievable” value [1] does the source give for `COc1ccc2c(c1)[C@]13CCCCC1[C@H](C2)N(C)CC3` (single isomer, unassigned; (+)) [dextromethorphan, (+)-3-methoxy-N-methylmorphinan] here?
Answer: 13,100 ng/g and about 48 microM

Question: What about the “concentration giving almost complete protection” value [2] of the same compound?
Answer: 100 µM

Question: And the “neuroprotective plasma (serum) levels” value ([3]; animal models of cerebral ischemia)?
Answer: ≥ 500 ng/mL

Question: And the neuroprotective brain levels ([3]; conversion of 10,000 ng/g)?
Answer: about 37 microM

Question: What about the “neurological symptoms of MTX neurotoxicity” value [4] of the same compound?
Answer: completely resolved neurological symptoms; also recorded: completely resolved neurological deficits

Question: What about the “clinical or neurophysiological parameter improvements” value ([5]; Askmark et al., N=14, 150 mg/day 12-week crossover, then 300 mg/day open) of the same compound?
Answer: no clinical or neurophysiological parameter

Question: What about the “rate of disease progression vs placebo” value ([5]; Blin et al., N=49, 1.5 mg/kg/day, 1-year) of the same compound?
Answer: no significant differences in rate of disease progression

Question: And the 12-month survival ([5]; Gredal et al., N=45, 150 mg/day)?
Answer: did not demonstrate an improvement in 12-month survival

Question: What about the adverse reactions ([6]; even at the highest levels, symptoms tolerable and reversible) of the same compound?
Answer: no patient suffered severe adverse reactions

Question: And the “maximum level in serum” value ([6]; neurosurgery patients, maximum 9.64 mg/kg oral dose)?
Answer: 1514 ng/mL

Question: What about the “maximum level in brain” value ([6]; neurosurgery patients) of the same compound?
Answer: 92,700 ng/g

Question: And the “median peak tolerated dose” value [7]?
Answer: 410 mg/day

Question: What about the “steady-state plasma level (Cmax)” value [8] of the same compound?
Answer: 190 ng/mL

Question: What about the “levels in CSF” value ([9]; oral 36-38 mg/kg/day, children, cardiac surgery) of the same compound?
Answer: 285 to 939 ng/mL

Question: What about the adverse events ([9]; oral 36-38 mg/kg/day) of the same compound?
Answer: not observed

Question: And the “postoperative EEG sharp waves” value ([9]; p=0.02, N=13)?
Answer: significantly decreased postoperative EEG sharp waves

Question: What about the “third ventricle postoperative enlargement, diameter” value ([9]; vs. 0.256 cm placebo, p=0.06) of the same compound?
Answer: 0.112 cm

Question: What about the “rate of postoperative periventricular white matter lesions” value ([9]; vs. 2/7 placebo) of the same compound?
Answer: 0/6

Question: What about the AUC0-12 ([10]; 120 mg daily dextromethorphan (60 mg BID) with quinidine (30 mg BID), steady state) of the same compound?
Answer: 1963 ± 609 ng·h/mL

Question: And the “steady state peak plasma levels” value ([10]; 120 mg daily dextromethorphan (60 mg BID) with quinidine (30 mg BID))?
Answer: 192 ± 45 ng/mL

Question: And the dextromethorphan in plasma [11]?
Answer: not detectable or at the limits of detection

Question: Which “lowest dose needed to maximally suppress O-demethylation of dextromethorphan” value ([10]; human, in vivo) does the source give for `C=C[C@H]1C[N@]2CC[C@@H]1C[C@@H]2[C@@H](O)c1ccnc2ccc(OC)cc12` [quinidine] here?
Answer: about 30 mg

Question: And the “increase of plasma levels of dextromethorphan” value ([10]; quinidine 30 mg BID given with 60 mg BID dextromethorphan)?
Answer: 25 fold

Question: For `CNCCC(Oc1ccc(C(F)(F)F)cc1)c1ccccc1` (stereo not drawn) [fluoxetine], which “increase of dextromethorphan concentrations in the blood” value [12] is on record?
Answer: effective in increasing dextromethorphan concentrations in the blood of some people
